Values quoted from earlier work in patent US5196437A, “Method for treating hepatic diseases and regenerating liver tissue using FK 506 and related compounds” (Fujisawa Pharmaceutical Company, Ltd., priority 1990, dated 1993).

Experiments:
liver tissue = settings: literature; cited from earlier work
liver = settings: literature (Starzl et al); cited from earlier work

Row | Compound | regeneration of liver tissue after partial hepatectomy (liver tissue) | hepatotrophic properties (liver) | metabolic effect on the liver (liver)
1 | Cn1cnc([N+](=O)[O-])c1Sc1ncnc2nc[nH]c12 [Azathioprine] | depress the regeneration of liver tissue | – | –
2 | glucagon | – | does not have the hepatotrophic properties | powerful metabolic effect on the liver
3 | insulin | – | exhibit hepatotrophic effects similar to those of the present compounds | –
